Results as given in patent US20110038948A1, “Methods of Reducing the Production of Reactive Oxygen Species and Methods of Screening or Identifying Compounds and Compositions that Reduce the Production of Reactive Oxygen Species” (UNIVERSITY OF TENNESSEE RESEARCH FOUNDATION, priority 2005, published 2011).

Experiments:
fatty acid synthase = assay: Fatty acid synthase gene expression in adipocytes; type: cell-based, murine; settings: p<0.05
Source text: The adipose tissue-skeletal muscle endocrine axis may play a potential role in regulating metabolic energy partitioning. […] However, the effect of leucine and calcium, in regulating this process is unclear. Accordingly, present study was designed to investigate the effect of leucine, calcitriol and calcium on energy metabolism in murine adipocytes and muscle cells.

3T3-L1 adipocytes [1] = assay: Cytokine antibody array of culture medium; type: cell-based, mouse
Protocol: RAW 264 macrophages and 3T3-L1 preadipocytes (American Type Culture Collection) were incubated at a density of 8000 cells/cm2 (10 cm2 dish) and grown in Dulbecco's modified Eagle's medium (DMEM) containing 10% FBS and antibiotics (adipocyte medium) at 37° C. in 5% CO2 in air. Confluent 3T3-L1 preadipocytes were induced to differentiate with a standard differentiation medium consisting of DMEM-F10 (1:1, vol/vol) medium supplemented with 1% FBS, 1 μM dexamethasone, IBMX (0.5 mM) and antibiotics (1% Penicillin-Streptomycin). Preadipocytes were maintained in this differentiation medium for 3 days and subsequently cultured in adipocyte medium. Cultures were re-fed every 2-3 days to allow 90% cells to reach fully differentiation for 3T3-L1 adipocytes or grow to a confluence for RAW 264 before conducting chemical treatment.
Human adipocytes (Zen-Bio, Inc.), 3T3-L1 adipocytes, RAW264 macrophages were obtained and co-cultured by using transwell inserts with 0.4 μm porous membranes (Corning) to separate adipocytes and macrophages. All data are expressed as mean±SEM. Data were evaluated for statistical significance by analysis of one-way or two-way variance (ANOVA; means with different letter differ, p<0.05).
A TansSignal™ mouse cytokine antibody array kit (Panomics, Fremont, Calif.) was used to detect cytokine protein released in culture medium according to the manufacture's instruction. […]

C2C12 myotubes = assay: IL-15 release by myotubes (ELISA); type: cell-based, murine; settings: C2C12 myotubes, 48 hours
Protocol: IL-15 release in the medium was determined using ELISA. Data are corrected for DNA content. Values are presented as mean±SEM, n=6. Means with different letter differ with p<0.05.

[2] = test system: macrophage inhibitory factor (MIF); assay: MIF expression in human adipocytes; type: cell-based; settings: calcitriol 10 nmol/L, 48 hours; p=0.001
Source text: Cell culture: Human preadipocytes used in this study were supplied by Zen-Bio (Research Triangle, N.C.). Preadipocytes were inoculated in DMEM/Ham's F-10 medium (DMEM-F10) (1:1, vol/vol) containing 10% FBS, 15 mmol/L HEPES, and antibiotics at a density of 30,000 cells/cm2. Confluent monolayers of preadipocytes were induced to differentiate with a standard differentiation medium consisting of DMEM-F10 (1:1, vol/vol) medium supplemented with 15 mmol/L HEPES, 3% FBS, 33 μmol/L biotin, 17 μmol/L pantothenate, 100 nmol/L insulin, […] methylisobutylxanthine, 1 μmol/L dexamethasone, 1 μmol/L BRL49653, and antibiotics. […]
Cells were washed with fresh adipocyte medium, re-fed with medium containing the indicated treatments, and incubated at 37° C. in 5% CO2 for 48 hours before analysis. Cell viability was measured via trypan blue exclusion.
Adipocyte and muscle 18s, CD14, TNFα, MIP, M-CSF, IL-6 and MCP-1 were quantitatively measured using a Smart Cycler Real Time PCR System (Cepheid, Sunnyvale, Calif.) with a TaqMan 1000 Core Reagent Kit (Applied Biosystems, Branchburg, N.J.). […] Reactions of quantitative RT-PCR for standards and unknown samples were also performed according to the instructions of Smart Cycler System (Cepheid, Sunnyvale, Calif.) and TaqMan Real Time PCR Core Kit (Applied Biosystems, Branchburg, N.J.). […]

3T3-L1 adipocytes [3] = assay: Intracellular ROS generation in cultured adipocytes (H2-DCFDA); type: cell-based, mouse; settings: compound plus glucose 30 mmol/L, 48 hours
Protocol: 3T3-L1 preadipocytes were incubated at a density of 8000 cells/cm^2 (10 cm^2 dish) and grown in Dulbecco's modified Eagle's medium (DMEM) containing 10% FBS and antibiotics (adipocyte medium) at 37° C. in 5% CO2 in air. Confluent preadipocytes were induced to differentiate with a standard differentiation medium consisting of DMEM-F10 (1:1, vol/vol) medium supplemented with 1% FBS, 1 μM dexamethasone, IBMX (0.5 mM) and antibiotics (1% Penicillin-Streptomycin). Preadipocytes were maintained in this differentiation medium for 3 days and subsequently cultured in adipocyte medium. Cultures were re-fed every 2-3 days to allow 90% of cells to reach full differentiation before conducting chemical treatment. Chemicals were freshly diluted in adipocyte medium before treatment. Cells were washed with fresh adipocyte medium, re-fed with medium containing the different treatments, and incubated at 37° C. in 5% CO2 in air before analysis. Cell viability was measured via trypan blue exclusion. […] Cells were loaded with H2-DCFDA (2 μmol/L) 30 minute before the end of the incubation period (48 h). After washing twice with PBS, cells were scraped and disrupted by sonication on ice (20 s). Fluorescence (emission 543 nm or 527 nm) and DNA content were then measured as described previously. The intensity of fluorescence was expressed as arbitrary units per ng DNA.

C=C1/C(=C\C=C2/CCC[C@]3(C)[C@@H]([C@H](C)CCCC(C)(C)O)CC[C@@H]23)C[C@@H](O)C[C@@H]1O [calcitriol, 1,25-(OH)2-D3]
increase in adipocyte FAS gene expression (fatty acid synthase): 3 fold | inflammatory cytokine production (3T3-L1 adipocytes [1]; co-culture of 3T3-L1 adipocytes with macrophages): further stimulated | production of multiple inflammatory cytokine proteins (3T3-L1 adipocytes [1]; differentiated 3T3-L1 adipocytes cultured alone): up-regulated | effect on IL-15 release (C2C12 myotubes): inhibitory effects | increase in MIF expression [2]: 59% | effect on high glucose induced ROS production (3T3-L1 adipocytes [3]): greater stimulation of ROS production than either glucose alone or glucose plus GDP
